Source: PubChem BioAssay (NCI)
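Step 1: Grow cells in 96-well plates. Step 2: Expose to compound for 48 hours at 5 concentrations. Step 3: Interpolate endpoints linearly; if unreached, use highest concentration. GI50 marks 50% less growth. Definition used: TGI = concentration required for complete inhibition of growth.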

Columns and labels:
Test in all cases: NCI anticancer screen, dose series, 48 h
786-0 renal = system: 786-0 renal
A498 renal = system: A498 renal
A549 NSCLC = system: A549 NSCLC
ACHN renal = system: ACHN renal
CAKI-1 renal = system: CAKI-1 renal
COLO 205 colon = system: COLO 205 colon
DU-145 prostate = system: DU-145 prostate
HCT-116 colon = system: HCT-116 colon
HCT-15 colon = system: HCT-15 colon
HL-60(TB) leukemia = system: HL-60(TB) leukemia
HOP-62 NSCLC = system: HOP-62 NSCLC
HOP-92 NSCLC = system: HOP-92 NSCLC
HS 578T breast = system: HS 578T breast
HT29 colon = system: HT29 colon
IGROV1 ovarian = system: IGROV1 ovarian
K-562 leukemia = system: K-562 leukemia
KM12 colon = system: KM12 colon
M14 melanoma = system: M14 melanoma
MALME-3M melanoma = system: MALME-3M melanoma
MCF7 breast = system: MCF7 breast
MDA-MB-231 breast = system: MDA-MB-231 breast
MDA-MB-435 = system: MDA-MB-435
MOLT-4 leukemia = system: MOLT-4 leukemia
NCI-H226 lung = system: NCI-H226 lung
NCI-H23 lung = system: NCI-H23 lung
NCI-H460 lung = system: NCI-H460 lung
NCI-H522 lung = system: NCI-H522 lung
NCI/ADR-RES ovarian = system: NCI/ADR-RES ovarian
OVCAR-3 ovarian = system: OVCAR-3 ovarian
OVCAR-4 ovarian = system: OVCAR-4 ovarian
OVCAR-5 ovarian = system: OVCAR-5 ovarian
OVCAR-8 ovarian = system: OVCAR-8 ovarian
PC-3 prostate = system: PC-3 prostate
RPMI-8226 leukemia = system: RPMI-8226 leukemia
RXF 393 renal = system: RXF 393 renal
SF-268 CNS = system: SF-268 CNS
SF-295 CNS = system: SF-295 CNS
SF-539 CNS = system: SF-539 CNS
SK-MEL-2 melanoma = system: SK-MEL-2 melanoma
SK-MEL-28 melanoma = system: SK-MEL-28 melanoma
SK-MEL-5 melanoma = system: SK-MEL-5 melanoma
SK-OV-3 ovarian = system: SK-OV-3 ovarian
SN12C renal = system: SN12C renal
SNB-19 CNS = system: SNB-19 CNS
SNB-75 CNS = system: SNB-75 CNS
SR leukemia = system: SR leukemia
SW-620 colon = system: SW-620 colon
T-47D breast = system: T-47D breast
TK-10 renal = system: TK-10 renal
U251 CNS = system: U251 CNS
UACC-257 melanoma = system: UACC-257 melanoma
UACC-62 melanoma = system: UACC-62 melanoma
UO-31 renal = system: UO-31 renal

C[CH2][Sn]1([CH2]C)[O]C2C(O)OC(CO)C(O)C2[O]1 (stereo unspecified)
GI50 (786-0 renal): 23 µM
TGI (786-0 renal): 68.1 µM
GI50 (A498 renal): 18.9 µM
TGI (A498 renal): 42 µM
GI50 (A549 NSCLC): > 100 µM
TGI (A549 NSCLC): > 100 µM
GI50 (ACHN renal): 40.3 µM
TGI (ACHN renal): > 100 µM
GI50 (CAKI-1 renal): 31.1 µM
TGI (CAKI-1 renal): > 100 µM
GI50 (COLO 205 colon): 35.2 µM
TGI (COLO 205 colon): > 100 µM
GI50 (DU-145 prostate): 86.8 µM
TGI (DU-145 prostate): > 100 µM
GI50 (HCT-116 colon): 77.7 µM
TGI (HCT-116 colon): > 100 µM
GI50 (HCT-15 colon): 60.3 µM
TGI (HCT-15 colon): > 100 µM
GI50 (HL-60(TB) leukemia): 16.5 µM
TGI (HL-60(TB) leukemia): 39.1 µM
GI50 (HOP-62 NSCLC): > 100 µM
TGI (HOP-62 NSCLC): > 100 µM
GI50 (HOP-92 NSCLC): 20 µM
TGI (HOP-92 NSCLC): 47 µM
GI50 (HS 578T breast): 25.9 µM
TGI (HS 578T breast): > 100 µM
GI50 (HT29 colon): 65 µM
TGI (HT29 colon): > 100 µM
GI50 (IGROV1 ovarian): 38.7 µM
TGI (IGROV1 ovarian): > 100 µM
GI50 (K-562 leukemia): 16.7 µM
TGI (K-562 leukemia): 41.4 µM
GI50 (KM12 colon): 90.4 µM
TGI (KM12 colon): > 100 µM
GI50 (M14 melanoma): 37.3 µM
TGI (M14 melanoma): > 100 µM
GI50 (MALME-3M melanoma): 14 µM
TGI (MALME-3M melanoma): 30.2 µM
GI50 (MCF7 breast): 25.4 µM
TGI (MCF7 breast): 79.5 µM
GI50 (MDA-MB-231 breast): 14.4 µM
TGI (MDA-MB-231 breast): 28.6 µM
GI50 (MDA-MB-435): 52.6 µM
TGI (MDA-MB-435): > 100 µM
GI50 (MOLT-4 leukemia): 12.8 µM
TGI (MOLT-4 leukemia): 40.5 µM
GI50 (NCI-H226 lung): 13.2 µM
TGI (NCI-H226 lung): 26.1 µM
GI50 (NCI-H23 lung): 24.2 µM
TGI (NCI-H23 lung): 93 µM
GI50 (NCI-H460 lung): > 100 µM
TGI (NCI-H460 lung): > 100 µM
GI50 (NCI-H522 lung): 3.95 µM
TGI (NCI-H522 lung): 22.2 µM
GI50 (NCI/ADR-RES ovarian): > 100 µM
TGI (NCI/ADR-RES ovarian): > 100 µM
GI50 (OVCAR-3 ovarian): > 100 µM
TGI (OVCAR-3 ovarian): > 100 µM
GI50 (OVCAR-4 ovarian): 14.8 µM
TGI (OVCAR-4 ovarian): 36.9 µM
GI50 (OVCAR-5 ovarian): 20.8 µM
TGI (OVCAR-5 ovarian): 47.3 µM
GI50 (OVCAR-8 ovarian): > 100 µM
TGI (OVCAR-8 ovarian): > 100 µM
GI50 (PC-3 prostate): > 100 µM
TGI (PC-3 prostate): > 100 µM
GI50 (RPMI-8226 leukemia): 7.16 µM
TGI (RPMI-8226 leukemia): 23.8 µM
GI50 (RXF 393 renal): 27.6 µM
TGI (RXF 393 renal): > 100 µM
GI50 (SF-268 CNS): 39.4 µM
TGI (SF-268 CNS): > 100 µM
GI50 (SF-295 CNS): > 100 µM
TGI (SF-295 CNS): > 100 µM
GI50 (SF-539 CNS): 17.3 µM
TGI (SF-539 CNS): 32.5 µM
GI50 (SK-MEL-2 melanoma): 35.5 µM
TGI (SK-MEL-2 melanoma): > 100 µM
GI50 (SK-MEL-28 melanoma): 23.3 µM
TGI (SK-MEL-28 melanoma): 80.4 µM
GI50 (SK-MEL-5 melanoma): 34.1 µM
TGI (SK-MEL-5 melanoma): > 100 µM
GI50 (SK-OV-3 ovarian): > 100 µM
TGI (SK-OV-3 ovarian): > 100 µM
GI50 (SN12C renal): 4.55 µM
TGI (SN12C renal): 26.5 µM
GI50 (SNB-19 CNS): 50.5 µM
TGI (SNB-19 CNS): > 100 µM
GI50 (SNB-75 CNS): > 100 µM
TGI (SNB-75 CNS): > 100 µM
GI50 (SR leukemia): 13.3 µM
TGI (SR leukemia): 39.6 µM
GI50 (SW-620 colon): 20.2 µM
TGI (SW-620 colon): 46.4 µM
GI50 (T-47D breast): 14.6 µM
TGI (T-47D breast): 32.3 µM
GI50 (TK-10 renal): 18.4 µM
TGI (TK-10 renal): 36.5 µM
GI50 (U251 CNS): 17.9 µM
TGI (U251 CNS): 36.9 µM
GI50 (UACC-257 melanoma): 14.4 µM
TGI (UACC-257 melanoma): 31.8 µM
GI50 (UACC-62 melanoma): 17.9 µM
TGI (UACC-62 melanoma): 39.6 µM
GI50 (UO-31 renal): 68.7 µM
TGI (UO-31 renal): > 100 µM
